In experiment [1] the target is ENPP2 (Mus musculus, UniProt Q9R1E6). More on the design: species or system mice. To be noted: in vivo, 30 mg/kg.
For experiment [2], the system named is CD3+ CD4+ and CD3+ CD8+ T cells in PBMC. The experiment is described as follows: LPA induced T cell activation assay (HLADR and CD38 co-expression, flow cytometry). It counts as cell-based, human. To be noted: 100 uM LPA. As to the method: FIGS. 4(A-B) are a series of charts showing LPA dependent T cell activation. 500,000 PBMC from 5 healthy controls and 3 untreated HIV infected subjects were cultured overnight in the absence or presence of PHA, followed by 3 days of culture in media or 100 uM LPA. Proportion of CD3^+ CD4^+ (Panel A) and CD3^+ CD8^+ (Panel B) T cells that express of HLA DR and CD38 are shown. Statistical analysis shown for all 8 subjects combined. Comparisons between presence and absence of LPA in PHA pre-treated healthy control CD4 and CD8 activation were also significant (P=0.04, P=0.04).
To determine whether LPA can directly contribute to immune activation we have conducted LPA induced T cell activation assays using HLADR and CD38 co-expression as a readout (FIG. 4).
In general terms: In flow cytometry, cells or beads pass a laser one at a time.

Experiment [3] concerns monocytes. The experiment is described as follows: In vitro monocyte activation by LPA. It counts as cell-based.

On to `O=C(CCN1CCN(C(=O)OCc2cc(Cl)cc(Cl)c2)CC1)c1ccc2[nH]c(=O)oc2c1` [PF-8380], for which the “Reversal of deleterious effect on T cell function and neoantigen response” value in experiment [1] is “at least partially reversed”.

With lysophosphatidic acid [LPA], the “T cell activation (HLADR and CD38 co-expression)” value in experiment [2] (PBMC from healthy controls and untreated HIV infected subjects, 4 day culture, with or without PHA) is recorded as “enhanced T cell activation”. Also, the “Activation in the CD4 compartment” value in experiment [2] (regardless of pre-activation, more robust with PHA pre-activation) is reported as “Activation was observed”. For the same compound, the Monocyte activation result in experiment [3] is “activated monocytes”.

These data come from US10520507B2, “Methods for determining the risk of cardiovascular disease in a subject having a chronic viral infection through the measurement of lysophosphatidic acid” (CASE WESTERN RESERVE UNIVERSITY, priority 2014, dated 2019).
